From PMC5218480 (PLoS ONE, 2017)

System: MV-4-11 cells
Assay: Gene expression microarray analysis (Affymetrix PrimeView) and GSEA
Assay type: cell-based, human
Design: RFU PODN (11730768_x_at) / Fold change /veh PODN (11730768_x_at) / RFU LINC00158 (11744669_a_at) / Fold change /veh LINC00158 (11744669_a_at) / RFU DUSP10 (11751237_a_at) / Fold change /veh DUSP10 (11751237_a_at) / RFU ID3 (11757404_x_at) / Fold change /veh ID3 (11757404_x_at) / RFU PLEKHG5 (11737974_s_at) / Fold change /veh PLEKHG5 (11737974_s_at) / RFU LRRC4B (11730491_at) / Fold change /veh LRRC4B (11730491_at) / RFU GIMAP4 (11747438_a_at) / Fold change /veh GIMAP4 (11747438_a_at) / RFU KRT8 (11758183_x_at) / Fold change /veh KRT8 (11758183_x_at) / RFU CNN1 (11734310_a_at) / Fold change /veh CNN1 (11734310_a_at) / RFU VPS37D (11726825_at) / Fold change /veh VPS37D (11726825_at) / RFU C10orf10 (11716522_x_at) / Fold change /veh C10orf10 (11716522_x_at) / RFU KIR2DL2 /// KIR2DL4 /// KIR2DL5A /// KIR2DL5B /// KIR2DS1 /// KIR2DS2 /// KIR2DS3 /// KIR2DS4 /// KIR3DL3 /// KIR3DL3 /// KIR3DS1 (11738374_at) / Fold change /veh KIR2DL2 /// KIR2DL4 /// KIR2DL5A /// KIR2DL5B /// KIR2DS1 /// KIR2DS2 /// KIR2DS3 /// KIR2DS4 /// KIR3DL3 /// KIR3DL3 /// KIR3DS1 (11738374_at) / RFU C1QL1 (11718748_at) / Fold change /veh C1QL1 (11718748_at) / RFU TMPRSS4 (11747572_a_at) / Fold change /veh TMPRSS4 (11747572_a_at) / RFU HAMP (11756126_x_at) / Fold change /veh HAMP (11756126_x_at) / RFU RNFT2 (11725882_a_at) / Fold change /veh RNFT2 (11725882_a_at) / RFU NR4A2 (11747474_a_at) / Fold change /veh NR4A2 (11747474_a_at) / RFU ABCC12 (11746883_a_at) / Fold change /veh ABCC12 (11746883_a_at) / RFU TMEM136 (11760407_x_at) / Fold change /veh TMEM136 (11760407_x_at) / RFU CLDN22 /// WWC2 (11732394_at) / Fold change /veh CLDN22 /// WWC2 (11732394_at) / RFU HLA-DPB1 (11760878_x_at) / Fold change /veh HLA-DPB1 (11760878_x_at) / RFU SPINT1 (11716480_a_at) / Fold change /veh SPINT1 (11716480_a_at) / RFU GAP43 (11754022_s_at) / Fold change /veh GAP43 (11754022_s_at) / RFU A4GNT (11735810_at) / Fold change /veh A4GNT (11735810_at) / RFU PRB3 (11715151_x_at) / Fold change /veh PRB3 (11715151_x_at) / RFU TUBB4B (11761932_at) / Fold change /veh TUBB4B (11761932_at) / RFU CAPN14 (11732068_a_at) / Fold change /veh CAPN14 (11732068_a_at) / RFU TMCC2 (11721928_a_at) / Fold change /veh TMCC2 (11721928_a_at) / RFU IRGQ (11745062_a_at) / Fold change /veh IRGQ (11745062_a_at) / RFU FAM174B (11720279_a_at) / Fold change /veh FAM174B (11720279_a_at) / RFU TMPRSS4 (11748680_a_at) / Fold change /veh TMPRSS4 (11748680_a_at) / RFU FAM212B (11763350_a_at) / Fold change /veh FAM212B (11763350_a_at) / RFU PLEKHG5 (11743358_a_at) / Fold change /veh PLEKHG5 (11743358_a_at) / RFU ZSCAN30 (11745921_a_at) / Fold change /veh ZSCAN30 (11745921_a_at) / RFU CMKLR1 (11741424_a_at) / Fold change /veh CMKLR1 (11741424_a_at) / RFU LOC101060620 /// MAPK8IP1 (11723275_at) / Fold change /veh LOC101060620 /// MAPK8IP1 (11723275_at) / RFU SPTSSB (11747773_x_at) / Fold change /veh SPTSSB (11747773_x_at) / RFU PRSS12 (11739890_at) / Fold change /veh PRSS12 (11739890_at) / RFU BIN1 (11741810_x_at) / Fold change /veh BIN1 (11741810_x_at) / RFU WNT11 (11732464_a_at) / Fold change /veh WNT11 (11732464_a_at) / RFU C10orf10 (11716521_a_at) / Fold change /veh C10orf10 (11716521_a_at) / RFU C5orf56 (11738089_at) / Fold change /veh C5orf56 (11738089_at) / RFU CYB561 (11721691_x_at) / Fold change /veh CYB561 (11721691_x_at) / RFU ANKRD19P (11752326_a_at) / Fold change /veh ANKRD19P (11752326_a_at) / RFU OR2T12 /// OR2T33 /// OR2T8 (11738714_s_at) / Fold change /veh OR2T12 /// OR2T33 /// OR2T8 (11738714_s_at) / RFU VCAN (11748164_a_at) / Fold change /veh VCAN (11748164_a_at) / RFU JSRP1 (11732532_at) / Fold change /veh JSRP1 (11732532_at) / RFU KRTAP10-11 (11738290_x_at) / Fold change /veh KRTAP10-11 (11738290_x_at) / RFU MYO3A (11730013_a_at) / Fold change /veh MYO3A (11730013_a_at) / RFU EBF3 (11725865_a_at) / Fold change /veh EBF3 (11725865_a_at) / RFU CAMK2N1 (11719241_x_at) / Fold change /veh CAMK2N1 (11719241_x_at) / RFU C5orf56 (11738088_a_at) / Fold change /veh C5orf56 (11738088_a_at) / RFU OLFML3 (11715873_a_at) / Fold change /veh OLFML3 (11715873_a_at) / RFU LOC100653217 /// NTM (11731650_a_at) / Fold change /veh LOC100653217 /// NTM (11731650_a_at) / RFU MAPK11 (11762145_a_at) / Fold change /veh MAPK11 (11762145_a_at) / RFU FIZ1 (11724087_x_at) / Fold change /veh FIZ1 (11724087_x_at) / RFU OASL (11726364_x_at) / Fold change /veh OASL (11726364_x_at) / RFU SOX15 (11748057_x_at) / Fold change /veh SOX15 (11748057_x_at) / RFU CD79A (11719716_a_at) / Fold change /veh CD79A (11719716_a_at) / RFU HIST1H1D (11736915_at) / Fold change /veh HIST1H1D (11736915_at) / RFU CASKIN2 (11723855_a_at) / Fold change /veh CASKIN2 (11723855_a_at) / RFU LOC730098 (11760151_x_at) / Fold change /veh LOC730098 (11760151_x_at) / RFU OR4N2 (11742367_at) / Fold change /veh OR4N2 (11742367_at) / RFU PRRT2 (11749266_a_at) / Fold change /veh PRRT2 (11749266_a_at) / RFU SNX32 (11753110_a_at) / Fold change /veh SNX32 (11753110_a_at) / RFU CDHR5 (11726645_a_at) / Fold change /veh CDHR5 (11726645_a_at) / RFU RCAN1 (11760418_a_at) / Fold change /veh RCAN1 (11760418_a_at) / RFU FAM167A (11723789_a_at) / Fold change /veh FAM167A (11723789_a_at) / RFU FAM26E (11764081_at) / Fold change /veh FAM26E (11764081_at) / RFU ISYNA1 (11749810_s_at) / Fold change /veh ISYNA1 (11749810_s_at) / RFU ACY1 (11761880_at) / Fold change /veh ACY1 (11761880_at) / RFU 11764098_at / Fold change /veh 11764098_at / RFU SAMD14 (11745864_x_at) / Fold change /veh SAMD14 (11745864_x_at) / RFU NPB (11741838_a_at) / Fold change /veh NPB (11741838_a_at) / RFU TMPRSS6 (11731388_a_at) / Fold change /veh TMPRSS6 (11731388_a_at) / RFU KRTAP10-2 (11738614_at) / Fold change /veh KRTAP10-2 (11738614_at) / RFU ARHGAP8 /// PRR5-ARHGAP8 (11727945_x_at) / Fold change /veh ARHGAP8 /// PRR5-ARHGAP8 (11727945_x_at) / RFU KRTAP5-7 /// NADSYN1 (11734609_at) / Fold change /veh KRTAP5-7 /// NADSYN1 (11734609_at) / RFU RASL12 (11751679_a_at) / Fold change /veh RASL12 (11751679_a_at) / RFU CDKN2B (11736163_a_at) / Fold change /veh CDKN2B (11736163_a_at) / RFU PRF1 (11729649_at) / Fold change /veh PRF1 (11729649_at) / RFU, ZNF638 /// ZNF638-IT1 / Fold change vs veh, ZNF638 /// ZNF638-IT1 / RFU, PANK3 / Fold change vs veh, PANK3 / RFU, SH3YL1 / Fold change vs veh, SH3YL1 / RFU, ZEB2 / Fold change vs veh, ZEB2 / RFU, NRIP1 / Fold change vs veh, NRIP1 / RFU, PTTG1IP / Fold change vs veh, PTTG1IP / RFU, CAPN2 / Fold change vs veh, CAPN2 / RFU, MED14 / Fold change vs veh, MED14 / RFU, SNORA58 / Fold change vs veh, SNORA58 / RFU, C1orf63 / Fold change vs veh, C1orf63 / RFU, LRRFIP1 / Fold change vs veh, LRRFIP1 / RFU, NDUFAF7 / Fold change vs veh, NDUFAF7 / RFU, SLC12A2 / Fold change vs veh, SLC12A2 / RFU, IBTK / Fold change vs veh, IBTK / RFU, ESF1 / Fold change vs veh, ESF1 / Fold change vs veh, TMEM50B / RFU, TAOK1 / Fold change vs veh, TAOK1 / RFU, ACBD3 / Fold change vs veh, ACBD3 / RFU, TMA16 / Fold change vs veh, TMA16 / RFU, RWDD3 / Fold change vs veh, RWDD3 / RFU, BCAT1 / Fold change vs veh, BCAT1 / RFU, EDEM3 / Fold change vs veh, EDEM3 / RFU, TMEM33 / Fold change vs veh, TMEM33 / RFU, WDR75 / Fold change vs veh, WDR75 / RFU, AHCTF1 / Fold change vs veh, AHCTF1 / RFU, TFRC / Fold change vs veh, TFRC / RFU, ZDHHC17 / Fold change vs veh, ZDHHC17 / RFU, NOM1 / Fold change vs veh, NOM1 / RFU, ARL8B / Fold change vs veh, ARL8B / RFU, ZBTB11 / Fold change vs veh, ZBTB11 / RFU, TAMM41 / Fold change vs veh, TAMM41 / RFU, KIAA1704 /// LOC100996395 / Fold change vs veh, KIAA1704 /// LOC100996395 / RFU, ING1 / Fold change vs veh, ING1 / RFU, TRMT61B / Fold change vs veh, TRMT61B / RFU, FUBP3 / Fold change vs veh, FUBP3 / RFU, TP53 / Fold change vs veh, TP53 / RFU, TNKS2 / Fold change vs veh, TNKS2 / RFU, ZFP14 / Fold change vs veh, ZFP14 / RFU, ACTR2 / Fold change vs veh, ACTR2 / RFU, PPP3R1 / Fold change vs veh, PPP3R1 / RFU, PIK3R1 / Fold change vs veh, PIK3R1 / RFU, HNRNPA1 / Fold change vs veh, HNRNPA1 / RFU, RNF170 / Fold change vs veh, RNF170 / RFU, ZNF28 / Fold change vs veh, ZNF28 / RFU, RNGTT / Fold change vs veh, RNGTT / RFU, OGT / Fold change vs veh, OGT / RFU, BRD1 / Fold change vs veh, BRD1 / RFU, MARS / Fold change vs veh, MARS / RFU, ZNF655 / Fold change vs veh, ZNF655 / RFU, FAHD1 / Fold change vs veh, FAHD1 / RFU, BDP1 / Fold change vs veh, BDP1 / RFU, LRRCC1 / Fold change vs veh, LRRCC1 / RFU, ARID1A / Fold change vs veh, ARID1A / RFU, ZNF146 / Fold change vs veh, ZNF146 / RFU, ZNF330 / Fold change vs veh, ZNF330 / RFU, GPN3 / Fold change vs veh, GPN3 / RFU, C9orf123 / Fold change vs veh, C9orf123 / RFU, N4BP2L2 / Fold change vs veh, N4BP2L2 / RFU, ARFIP1 / Fold change vs veh, ARFIP1 / RFU, FAM179B / Fold change vs veh, FAM179B / RFU, BCL10 / Fold change vs veh, BCL10 / RFU, UHRF1BP1L / Fold change vs veh, UHRF1BP1L / RFU, BET1 / Fold change vs veh, BET1 / RFU, CNOT2 / Fold change vs veh, CNOT2 / RFU, ZNF268 / Fold change vs veh, ZNF268 / Fold change vs veh, ZNF507 / RFU, DGCR2 / Fold change vs veh, DGCR2 / RFU, WDSUB1 / Fold change vs veh, WDSUB1 / Fold change vs veh, HSP90B1 /// MIR3652 / RFU, ADSS / Fold change vs veh, ADSS / RFU, GK / Fold change vs veh, GK / RFU, ZNF148 / Fold change vs veh, ZNF148 / RFU, TAF9 / Fold change vs veh, TAF9 / RFU, SLC1A5 / Fold change vs veh, SLC1A5 / RFU, SLMO2 / Fold change vs veh, SLMO2 / RFU, ABCC4 / Fold change vs veh, ABCC4 / RFU, LOC101060439 /// RAP1B / Fold change vs veh, LOC101060439 /// RAP1B / RFU, RFX7 / Fold change vs veh, RFX7 / RFU, GTPBP10 / Fold change vs veh, GTPBP10 / RFU, CNEP1R1 / Fold change vs veh, CNEP1R1 / RFU, BIVM-ERCC5 /// ERCC5 / Fold change vs veh, BIVM-ERCC5 /// ERCC5 / RFU, ILF3 / Fold change vs veh, ILF3 / RFU 11762660_at / Fold change /veh 11762660_at / RFU VCAN (11757783_s_at) / Fold change /veh VCAN (11757783_s_at) / RFU DDX43 (11728927_at) / Fold change /veh DDX43 (11728927_at) / RFU KRT8 (11758188_x_at) / Fold change /veh KRT8 (11758188_x_at) / RFU NKD1 (11759106_at) / Fold change /veh NKD1 (11759106_at) / RFU SRD5A1 (11742802_a_at) / Fold change /veh SRD5A1 (11742802_a_at) / RFU TPSAB1 /// TPSB2 (11721975_s_at) / Fold change /veh TPSAB1 /// TPSB2 (11721975_s_at) / RFU GSTM3 (11746129_a_at) / Fold change /veh GSTM3 (11746129_a_at) / RFU IL23R (11737362_x_at) / Fold change /veh IL23R (11737362_x_at) / RFU TMEM51 (11727254_a_at) / Fold change /veh TMEM51 (11727254_a_at) / RFU PIWIL2 (11732686_x_at) / Fold change /veh PIWIL2 (11732686_x_at) / RFU ORM1 (11744905_x_at) / Fold change /veh ORM1 (11744905_x_at) / RFU CCDC152 (11743942_at) / Fold change /veh CCDC152 (11743942_at) / RFU ECM1 (11717891_a_at) / Fold change /veh ECM1 (11717891_a_at) / RFU IL23R (11748794_a_at) / Fold change /veh IL23R (11748794_a_at) / RFU TNFAIP8L3 (11732012_x_at) / Fold change /veh TNFAIP8L3 (11732012_x_at) / RFU MBOAT4 (11741988_at) / Fold change /veh MBOAT4 (11741988_at) / RFU 11764193_at / Fold change /veh 11764193_at / RFU TMEM53 (11763286_at) / Fold change /veh TMEM53 (11763286_at) / RFU MAGEB2 (11727129_at) / Fold change /veh MAGEB2 (11727129_at) / RFU TMEM200A (11744735_a_at) / Fold change /veh TMEM200A (11744735_a_at) / RFU CCDC152 (11751479_a_at) / Fold change /veh CCDC152 (11751479_a_at) / RFU FAM211A (11726209_a_at) / Fold change /veh FAM211A (11726209_a_at) / RFU RGS16 (11746705_a_at) / Fold change /veh RGS16 (11746705_a_at) / RFU VCAN (11755009_s_at) / Fold change /veh VCAN (11755009_s_at) / RFU RHOB (11743442_s_at) / Fold change /veh RHOB (11743442_s_at) / RFU RGS16 (11720943_a_at) / Fold change /veh RGS16 (11720943_a_at) / RFU RGS16 (11720944_at) / Fold change /veh RGS16 (11720944_at) / RFU, VPS4B / Fold change vs veh, VPS4B / RFU, CREB1 / Fold change vs veh, CREB1 / RFU, DNAJC13 / Fold change vs veh, DNAJC13 / RFU, GNAQ / Fold change vs veh, GNAQ / RFU, CDK5R1 / Fold change vs veh, CDK5R1 / RFU, ZRANB3 / Fold change vs veh, ZRANB3 / RFU, CUL4A / Fold change vs veh, CUL4A / RFU, CCNY / Fold change vs veh, CCNY / RFU, UFL1 / Fold change vs veh, UFL1 / RFU, COG3 / Fold change vs veh, COG3 / RFU, DIAPH2 / Fold change vs veh, DIAPH2 / RFU, SKA2 / Fold change vs veh, SKA2 / RFU, AFF3 / Fold change vs veh, AFF3 / RFU, LMF1 / Fold change vs veh, LMF1 / RFU, IPO11 / Fold change vs veh, IPO11 / RFU, DFFB / Fold change vs veh, DFFB / RFU, FOXP1 / Fold change vs veh, FOXP1 / RFU, CARD8 / Fold change vs veh, CARD8 / RFU, STRN3 / Fold change vs veh, STRN3 / RFU, ADK / Fold change vs veh, ADK / RFU, RASSF2 / Fold change vs veh, RASSF2 / RFU, WIPF1 / Fold change vs veh, WIPF1 / RFU, LARP1B / Fold change vs veh, LARP1B / RFU, RASA1 / Fold change vs veh, RASA1 / RFU, RB1 / Fold change vs veh, RB1 / RFU, PPFIA1 / Fold change vs veh, PPFIA1 / RFU, MAT2A / Fold change vs veh, MAT2A / RFU, CCT5 / Fold change vs veh, CCT5 / RFU, WDR92 / Fold change vs veh, WDR92 / RFU, CUX1 / Fold change vs veh, CUX1 / RFU, TTC7A / Fold change vs veh, TTC7A / RFU, TMEM135 / Fold change vs veh, TMEM135 / RFU, DEPTOR / Fold change vs veh, DEPTOR / RFU, CPM / Fold change vs veh, CPM / RFU, DNAJB6 / Fold change vs veh, DNAJB6 / RFU, CACNA2D3 / Fold change vs veh, CACNA2D3 / RFU, DTX4 / Fold change vs veh, DTX4 / RFU, TFCP2 / Fold change vs veh, TFCP2 / RFU, GMCL1 /// GMCL1P1 / Fold change vs veh, GMCL1 /// GMCL1P1 / RFU, AEBP2 / Fold change vs veh, AEBP2 / RFU, SNHG1 /// SNORD22 /// SNORD25 /// SNORD26 /// SNORD27 /// SNORD28 /// SNORD29 /// SNORD31 / Fold change vs veh, SNHG1 /// SNORD22 /// SNORD25 /// SNORD26 /// SNORD27 /// SNORD28 /// SNORD29 /// SNORD31 / Fold change (Aza/veh), C12orf56 (ProbeSet 11735607_a_at) / Fold change (ACY-1035/veh), C12orf56 (ProbeSet 11735607_a_at) / Fold change (Aza/veh), FGFR1OP (ProbeSet 11751329_s_at) / Fold change (ACY-1035/veh), FGFR1OP (ProbeSet 11751329_s_at) / Fold change (Aza/veh), VPS36 (ProbeSet 11739960_a_at) / Fold change (ACY-1035/veh), VPS36 (ProbeSet 11739960_a_at) / RFU SYPL1 (11715823_x_at) / Fold change /veh SYPL1 (11715823_x_at) / RFU IGFBP7 (11715501_s_at) / Fold change /veh IGFBP7 (11715501_s_at) / RFU REEP3 (11722064_at) / Fold change /veh REEP3 (11722064_at) / RFU IGLL1 (11728026_x_at) / Fold change /veh IGLL1 (11728026_x_at): dose or concentration left out as unconfirmed
Details: ProbeSet 11716891_at; LIST B

Q: `Nc1ccc(-c2cccs2)cc1NC(=O)c1ccc2c(c1)cc(C1CC1)n2CCN1CCOCC1` [ACY-1035] was tested. Which “Fold change vs veh, C9orf123” value did it give?
A: Its value is 1.03.
